{"source": "paper PMC12389415", "about": "“Killer Peptide-Containing Polyelectrolytic Nanocomplexes to Fight Toxoplasma gondii Infection” (Pharmaceutics, 2025)", "key": {"[1]": {"procedure": "Before formulation, peptide solubility and gelation properties were evaluated by dispersing the powder in different solvents, namely ultrapure water, phosphate-buffered saline, ethanol, methanol, or isopropanol, to evaluate its solubility and gelation properties and select the more appropriate formulative approach by microfluidics.\nThe solubility of KP and the flowability of the resulting solution are critical elements for microfluidic processing, since viscous solutions cannot be used, as they alter laminar flow conditions or clog the chip’s channels. For this reason, common solvents were screened to select those providing the highest solubility, to prevent spontaneous precipitation of the peptide, without neglecting their acceptability from the toxicological point of view."}, "[2]": {"details": "supplier data; ref Thermo Scientific; cited from earlier work", "description": "Killer peptide ([…], MW: 998.2, isoelectric point: 8.97) was acquired from Thermo Scientific (Rockford, IL, USA). Sodium hyaluronate (Hyal, MW: 15–30 kDa) was obtained from Contipro (Praha, Czech Republic). Chitosan (Chito, MW: 66 kDa, degree of deacetylation: 96%) was from Primex (Siglufjordur, Iceland). Acetic acid was from Merck. Ultrapure (UP) water was obtained by inverse osmosis using an Arium Comfort® system by Sartorius (Gottingen, Germany). Solvents and reagents were from Avantor, VWR, unless otherwise specified. Resazurin and chlorophenol red-β-D-galactopyranoside (CPRG) were ..."}, "[3]": {"tested_on": "T. gondii free tachyzoites", "assay": "Free tachyzoites exposure, parasite quantification by real-time PCR (B1 gene)", "assay_type": "cell-based, Toxoplasma gondii", "procedure": "Additionally, the same experiment was performed in duplicate to extract DNA for subsequent quantification of the parasite using real-time PCR CFX96™ Biorad® (version 3.1) (without using coverslips in the wells). The protocol by Santoro et al., amplifying the target B1 gene using Taqman technology, was optimized by defining the appropriate annealing temperature and amplification cycles. A standard curve for quantification was generated using T. gondii RH-WT grown in HFF cells, to ensure consistency in the results. DNA was extracted with the commercial kit Invitrogen PureLink™ Genomic DNA Mini Kit (Thermo Fisher Scientific, Waltham, Massachusetts, USA) from infected cells (control/treatment) 48 h after seeding, and it was used for amplification of the B1 gene.\nThe resulting product was loaded onto an agarose gel, and the corresponding band was excised for DNA quantification (12.3 ng/µL). From this, the number of copies per µL (1.1 × 10^11) was calculated using Copy Number Calculator (accessed on 11 April 2025)), and a standard curve was generated via serial dilutions (starting from a concentration of 10^8 copies of DNA/µL down to 10^2 copies of DNA/µL). Each condition was tested in four wells; three independent experiments were conducted."}, "[4]": {"assay": "Stability of free KP and KP-NPs under stress conditions (60 °C, acid, alkali)", "details": "2 h, Micro BCA", "procedure": "Moreover, KP-NPs were exposed to harsh conditions, to assess the ability of the formulation to protect KP from environmental degradation. […] These three samples were exposed to high temperatures (60 °C) for 2 h, then particle size and KP content were evaluated as described above.\nTo further assess the stability of KP-NPs and their potential protective effect on KP, both free KP and KP-NPs were subjected to harsh stress conditions, namely high temperature (60 °C) and strong acidic or alkaline environment (0.1 M HCl or NaOH) for two hours. […] As for nanoparticles, particle size was checked (Table 3), and the amount of KP released quantified."}, "[5]": {"tested_on": "T. gondii β-gal-RH (Type I) intracellular tachyzoites in HFFs", "assay": "Toxo-β-gal assay, post-infection model (intracellular parasites)", "assay_type": "cell-based, Toxoplasma gondii", "details": "dose-response, 48 h", "procedure": "T. gondii β-gal-RH (Type I) is a genetically modified strain constitutively expressing β-galactosidase under the control of the promoter SAG1 (constitutive promoter). Susceptibility of T. gondii β-gal to the tested compounds was assessed by determining IC50 values based on β-galactosidase assay, as described by Păunescu et al. Briefly, HFFs (5 × 10^3/well) were seeded into 96-well plates, and once confluent, 200 µL of a suspension of parasites prepared in DMEM + 10% FBS at the concentration of 7.5 × 10^4/mL was added to each well resulting in 1.5 × 10^4 parasites per well.\nPlates were incubated for 48 h 37 °C, 5% CO2, then cultures were washed once with 200 μL/well of PBS 1×. […] In total, 10 μL of 5 mM chlorophenol red-β-D-galactopyranoside (CPRG) was added to each well, and the reaction was monitored until saturation (usually reached in 30 min) by repeatedly measuring absorbance at 570 nm. The values obtained from the initial readings were subtracted from the respective final readings, and from these, the averages of each group were calculated. This was followed by calculation of the standard deviation and the calculation of percentage (normalized) absorbance, which was obtained from a ratio between the mean of the treatments and the mean of the negative control (DMEM 10% FBS), multiplied by 100. […]"}, "[6]": {"tested_on": "intracellular tachyzoites of T. gondii", "details": "in vitro; cited from earlier work", "description": "From a parasitological point of view, the fact that the nanoparticles developed here are effective against T. gondii, also without KP, is very intriguing and represents a novel finding. In fact, to the best of our knowledge, no literature describes a parasiticidal role of hyaluronate; while some studies have investigated the parasiticidal activity of chitosan-based nanoparticles, this was limited to the extracellular form or fre ..."}, "[7]": {"details": "real-time PCR B1 gene, 48 h, KP 250 µg/mL or corresponding NPs"}}, "note": "Read-outs that look alike come from different tables or passages of the source. Where a SMILES comes first, the peptide text is derived from it.", "data": [{"molecule": "CSCC[C@H](NC(=O)[C@@H](NC(=O)[C@@H](NC(=O)[C@H](CCCCN)NC(=O)[C@H](C)N)C(C)C)[C@@H](C)O)C(=O)N[C@H](C(=O)N[C@@H](CS)C(=O)N[C@@H](CO)C(=O)N[C@@H](C)C(=O)N[C@@H](CO)C(=O)O)[C@@H](C)O", "note": "[KP] (H-AKVTMTCSAS-OH; N-terminus and C-terminus assumed)", "values": [{"measurement": "Sol-gel transition kinetics in water", "setting": "[1]; KP 3.5 mg/mL, room temperature", "value": "over the course of two days"}, {"measurement": "Sol-gel transition kinetics in water", "setting": "[1]; KP 5 mg/mL", "value": "almost instantaneous"}, {"measurement": "Gelation in ethanol", "setting": "[1]; after dissolution at 2 mg/mL", "value": "almost immediate transition, leading to the formation of a thick gel"}, {"measurement": "Solubility in ethanol", "setting": "[1]; at least up to", "value": "≥ 2000", "unit": "µg/mL"}, {"measurement": "Solubility in PBS", "setting": "[1]; phosphate-buffered saline", "value": "practically insoluble"}, {"measurement": "Solubility in acetone", "setting": "[1]; powder dispersed in solvent", "value": "practically insoluble"}, {"measurement": "Solubility in isopropanol", "setting": "[1]; powder dispersed in solvent", "value": "practically insoluble"}, {"measurement": "Solubility in methanol", "setting": "[1]; verified up to", "value": "≥ 2000", "unit": "µg/mL"}, {"measurement": "isoelectric point", "setting": "[2]", "value": 8.97}, {"measurement": "% Reduction Rate (parasite load)", "setting": "[3]; compared to the control (DMEM), KP 250 µg/mL or corresponding NPs", "value": 94.6, "unit": "%"}, {"measurement": "Log SQ", "setting": "[3]; [7]", "value": 3.741}, {"measurement": "SQ Mean", "setting": "[3]; [7]", "value": 6041}, {"measurement": "Cq Mean", "setting": "[3]; real-time PCR B1 gene, DNA extracted 48 h after seeding, KP 250 µg/mL or corresponding NPs", "value": 28.17}, {"measurement": "FC", "setting": "[3]; vs DMEM control", "value": 0.072}, {"measurement": "ΔCq", "setting": "[3]; vs DMEM control", "value": 3.80}, {"measurement": "Recovery of peptide after stress", "setting": "[4]; acidic conditions (0.1 M HCl), 60 °C", "value": "full recovery"}, {"measurement": "Peptide degraded after stress", "setting": "[4]; alkaline conditions (0.1 M NaOH), 60 °C", "value": "approximately 20%"}, {"measurement": "Recovery of peptide after stress", "setting": "[4]; high temperature (60 °C)", "value": "full recovery"}, {"measurement": "Efficacy against intracellular T. gondii (in words)", "setting": "[5]", "value": "did not exhibit any efficacy"}]}, {"molecule": "spiramycin", "values": [{"measurement": "IC50", "setting": "[6]", "value": 218, "unit": "µg/mL"}]}]}
